Data published in paper PMC7663597, “Structure–Activity Relationship of Aloperine Derivatives as New Anti–Liver Fibrogenic Agents” (Molecules, 2020).

Tests used:
COL1A1 mRNA = experiment: RT-PCR of COL1A1 mRNA in LX-2 cells; assay type: cell-based, human; details: 24 h
Protocol: In the absence or presence of TGF-β1 (2 ng/mL) treatment, LX-2 cells were treated with key compounds 4n and 4p at concentrations of 6 μM and 12 μM, or 4i at a concentration of 12 μM, respectively.
LX-2 cells were laid on 6-well plate and cultured in DMEM supplemented with 10% fetal bovine serum (FBS) in a 5% CO2 atmosphere at 37 °C. And serum-free culture was required until the cells reached 90−95% confluence. […] Total RNA of the LX-2 cells was isolated using TRIzol reagent, purified using NucleoSpin RNA Clean-up. Reverse transcription was performed with Transcriptor first strand cDNA synthesis kit. Subsequently, the cDNA levels was determined by ABI 7500 Fast Real-Time PCR System using TaqMan probes of COL1A1, TGF-β1, α-SMA, and GAPDH (sequence not disclosed by ABI) and FastStart Universal Probe master mix (Roche, Indianapolis, IN, USA).

TGF-β1 protein = experiment: Western blot of TGF-β1 protein in LX-2 cells; assay type: cell-based, human; details: 24 h
Protocol: At the meantime, the addition of TGF-β1 also stimulated the expression of TGF-β1 on protein level, as shown in Figure 3A–C and Supplementary Table S2.
LX-2 cells were cultured as described above. Cells were washed with phosphate-buffered saline (PBS) and were resuspended by radioimmunoprecipitation assay (RIPA) lysis buffer for 30 min in 4 °C; the supernatant was collected after centrifugation at 12000 g for 15 min at 4 °C. Subsequently, equal amounts of protein were quantified with Bradford assay, separated using SDS-PAGE and transferred onto polyvinylidene difluoride membrane. The membranes were blocked with 5% milk in PBST for 1 h, and probed with specific primary antibodies overnight at room temperature. The membrane was washed three times by PBST, and probed with horseradish peroxidase-conjugated secondary antibodies and GAPDH. The proteins were visualized by chemiluminescence reagents. Antibodies used in western blot analysis were obtained from Abcam (Cambridge, UK): anti-collagen 1 (ab34710), anti-TGF beta 1 antibody (ab179695), anti-alpha smooth muscle actin (ab32575) and Cell Signaling Technology (Danvers, MA, USA): GAPDH (D16H11) Rabbit mAb (5174).

luciferase = target: T1, luciferase (Photinus pyralis, UniProt P08659, K549A/L550V/N119G/N50D/S548I); experiment: Acute effect on luciferase activity (cell lysate, 2 h); assay type: biochemical; details: 80 μM, 2-h treatment
T1 construct: expressed in transfected cells; host or cells: human hepatic stellate LX-2 cells transfected with pGL4.17-COL1A1P; lysate used
Protocol: Then, their anti-COL1A1 potencies were verified by testing the half maximal inhibition concentration (IC50) values upon COL1A1 expression expression in LX-2 cells. […] Then, compounds 4i, 4n and 4p with the lower IC50 values were selected as the key compounds for further studies.
(§1) Cells were maintained on Dulbecco’s Modified Eagle’s medium (DMEM), laid on 96-well plate. DMEM medium was supplemented with 10% fetal bovine serum (FBS) at 37 °C humidified atmosphere with 5% CO2. Furthermore, serum-free culture was required until the cells were confluent at 90−95%. 24 h later the cells were treated with a tested compound (40 and 80 μM) for 24 h. The COL1A1 promotor activity was detected by the Bright-Glo luciferase assay system. Alternatively, to test the acute effects of compound on luciferase activity, 24 h later the cells were lysed and the lysate was treated with a tested compound (80 μM) for 2 h, then the luciferase was detected by the Bright-Glo luciferase assay system (Promega, Madison, WI, USA).

Kunming mice = experiment: in vivo; details: both, mouse, po, 7 days
Protocol: (§2) To evaluate the safety profiles of the key compounds 4i, 4n and 4p, an acute toxicity test was performed in Kunming mice. Compound 4i was given orally in a single-dosing experiment at 100, 300 and 400 mg kg^−1, while 4n at 300, 400, 500 mg kg^−1, and 4p at 200, 400, 500 mg kg^−1. The mice were closely monitored for 7 days.
(§3) Male and Female Kunming mice with weight of 20.0 ±1.0 g were obtained from the Institute of Laboratory Animal Science (Beijing, China). Animals wer e cared according to the institutional guidelines of the Institute of Medicinal Biotechnology, CAMS&PUMC (IMB-20190610D3), and fed with regular rodent chow and housed in an air conditioned room. The mice were randomly divided into different groups with four male mice and four female mice each. Each compound was given orally in a single-dosing experiment, the dose of 4i was 100, 300 and 400 mg kg^−1, the dose of 4n was 300, 400, 500 mg kg^−1, the dose of 4p was 200, 400, 500 mg kg^−1 (ddH2O as control). The mice were closely monitored for 7 days. Body weight as well as survival was monitored.

in vivo = details: both sexes, Kunming, mouse, po
Protocol: as §2, §3

COL1A1 promotor = COL1A1 promotor luciferase reporter gene assay in TGF-β1-treated LX-2 cells; assay type: cell-based, human; details: Homo sapiens; for inhibition at 40 µM / inhibition at 80 µM: LX-2, 24 h; for inhibition at 40 µM: 24 h with TGF-β1, read-out: Inhibition Percentage 40 μM (inhibition rate of COL1A1 promotor's activity); for inhibition at 80 µM: 24 h with TGF-β1, read-out: Inhibition Percentage 80 μM (inhibition rate of COL1A1 promotor's activity); for IC50: read-out: IC50 (concentration required to inhibit 50% of COL1A1 promotor's activity)
Protocol: A single luciferase reporter gene detection model was applied to evaluate the inhibitory effects of all target compounds on the expression of COL1A1 promotor in human hepatic stellate LX-2 cells at the concentrations of 40 and 80 μM, taking EGCG as the positive control. The LX-2 cell lines were transfected with COL1A1 promotor luciferase plasmid pGL4.17-COL1A1P for 24 h, then simultaneously treated with TGF-β1 and a tested compound for 24 h.
as §1

[1] = TGF-β1 (2 ng/mL) stimulation, 6 μM
[2] = TGF-β1 (2 ng/mL) stimulation, 12 μM

T1 sequence (P08659 whole entry N50D/N119G/S548I/K549A/L550V): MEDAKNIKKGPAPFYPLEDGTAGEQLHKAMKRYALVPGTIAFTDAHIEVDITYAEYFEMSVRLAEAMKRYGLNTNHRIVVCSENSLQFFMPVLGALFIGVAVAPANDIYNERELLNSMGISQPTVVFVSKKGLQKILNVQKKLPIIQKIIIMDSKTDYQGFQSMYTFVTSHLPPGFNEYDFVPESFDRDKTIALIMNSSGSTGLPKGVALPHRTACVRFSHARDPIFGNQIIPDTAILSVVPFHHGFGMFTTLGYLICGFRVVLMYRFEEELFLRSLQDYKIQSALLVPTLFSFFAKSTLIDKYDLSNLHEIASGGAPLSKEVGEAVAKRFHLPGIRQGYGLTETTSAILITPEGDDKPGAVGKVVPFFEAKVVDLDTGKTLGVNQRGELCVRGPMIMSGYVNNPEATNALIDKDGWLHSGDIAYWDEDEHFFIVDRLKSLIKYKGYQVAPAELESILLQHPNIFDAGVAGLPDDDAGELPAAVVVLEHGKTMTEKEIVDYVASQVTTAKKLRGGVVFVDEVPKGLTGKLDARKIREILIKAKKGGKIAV

Structure (SMILES)	Inhibitory rate of COL1A1 transcription (mRNA) (COL1A1 mRNA; [1])	Inhibitory rate of COL1A1 transcription (mRNA) (COL1A1 mRNA; [2])	Inhibitory rate of COL1A1 transcription (mRNA) (COL1A1 mRNA; absence of TGF-β1, 6 μM)	Inhibitory rate of COL1A1 transcription (mRNA) (COL1A1 mRNA; absence of TGF-β1, 12 μM)	Inhibition rate of TGF-β1 protein expression (TGF-β1 protein; with TGF-β1, 6 μM)	Inhibition rate of TGF-β1 protein expression (TGF-β1 protein; with TGF-β1, 12 μM)	Acute effect on luciferase activity (luciferase)	median lethal dose (LD50) (Kunming mice)	LD50 at 7 days (in vivo)	inhibition at 40 µM (COL1A1 promotor)	inhibition at 80 µM (COL1A1 promotor)	IC50 (COL1A1 promotor)
O=C(CN1CCCC2=C[C@H]3C[C@H](CN4CCCC[C@H]34)[C@@H]21)N(c1ccccc1)c1ccc2ccccc2c1 [4n, 12N-(N’-(Naphthalen-2-yl)-N’-phenyl)carbamoylmethyl aloperine]	76.0%	84.5%	42%	47%	14.6%	61.0%	minimal inhibition	500 mg/kg	500 mg/kg	99.9 ± 0.1%	100%	13.3 ± 0.5 µM
O=C(CN1CCCC2=C[C@H]3C[C@H](CN4CCCC[C@H]34)[C@@H]21)N1c2ccccc2Oc2ccccc21 [4p, 12N-N′-Phenoxazinylcarbamoylmethyl aloperine]	99.5%	102.9%	38%	42%	20.8%	135.4%	minimal inhibition	400 mg/kg	400 mg/kg	72.2 ± 1.5%	99.1 ± 1%	16.5 ± 0.4 µM
